One test has as its target T1, σ1R-BiP (Mus musculus, UniProt O55242).
T1 construct: The coding region of the full-length murine σ1R (AF004927); GST (N, cleaved yes); host or cells: E. coli BL21 (KRX) for σ1R
As to the kind of experiment: In vitro σ1R-BiP association of recombinant proteins (Western blot). The format is biochemical. Conditions: for effect on σ1R-BiP association: increasing concentrations, 30 min RT, vs control without ligand; for activity at σ1R-BiP against agonists / β-End 1–31: 1 nM β-End 1–31 with increasing competitor (Figure S10). Here is the method:
(§1) Figure 7 Effect of β-End 1–31, ^αN-acetyl β-End 1–31 and their N-terminal derivatives on σ1R-σ2R, σ1R-NR1 C1 and σ1R-BiP associations. Amino acid sequence of β-End 1–31 showing derivatives 1–26 and 1–27. (A) HaloLink-attached σ2Rs were incubated for 30 min at RT in the presence of σ1Rs (100 nM) in 300 μL of 50 mM Tris-HCl (pH 7.4), 0.2% CHAPS, and 2.5 mM CaCl2. After removing the unbound σ1R proteins, the effects of increasing the peptide concentrations on σ1R-σ2R associations were studied. At the end of the incubation, protein complexes bound to HaloLink-σ2R were obtained by centrifugation, washed three times, solubilized in 2× Laemmli buffer containing β-mercaptoethanol, resolved by SDS-PAGE, and analyzed by Western blotting (for more details, see Section 4). This protocol was also used to assess the effect of ligands on (B) σ1R-NR1 C1 and (C) σ1R-BiP associations. Data were compared to that of the control, which was obtained in the absence of ligands. (A–C) Data are the mean ± SD, n = 3. (D) The β-End 1–31 structural models were predicted by Novafold (DNASTAR Lasergene protein v.17, Inc., Madison, WI, USA). Ribbon model: The 3D structure, charge distribution and hydrophobicity map of β-End 1–31 are shown. Positive charges are shown in red and negative charges in blue. Polar surfaces are shown in yellow, and nonpolar surfaces are shown in orange. Linear model: the opioid (1–5) and flexible region (8–11) sequences are shown in green and orange, respectively, and the amphiphilic helix (15–25) is shown in pink.
(§2) The recombinant σ1R (100 nM) was incubated either with Haloprotein (negative control) or together with the immobilized σ2R, NR1 C0-C1-C2 or BiP proteins in 300 µL of a buffer containing 50 mM Tris-HCl (pH 7.4) and 0.2% CHAPS in the presence of 2.5 mM CaCl2 for 30 min at RT. After removal of the unbound σ1R, the agarose-attached complexes were incubated for 30 min with rotation at RT in the presence of increasing concentrations of the ligands in a final reaction volume of 300 µL [50 mM Tris-HCl (pH 7.4), 2.5 mM CaCl2 and 0.2% CHAPS]. Ligands were usually dissolved in aqueous solutions; however, when an organic solvent such as DMSO was required to incorporate, e.g., pregnenolone sulfate, the solvent remained below 1% in the assay buffer. Agarose pellets containing the bound proteins were obtained by centrifugation, washed and resuspended thrice in the presence of 2.5 mM CaCl2, solubilized in 2× Laemmli buffer plus β-mercaptoethanol, and analyzed by Western blotting.
(§3) Because all the assays were performed with recombinant proteins, the immune signals provided a single band of the expected size, which was used for the subsequent densitometry analysis. Accordingly, no other regions of the blots provided information and were routinely excluded from the analysis.
Figure S8. Effect of the physiological and nonphysiological sequences of β-End 1-31 and classical σ1R ligands on BiP-σ1R, σ2R-σ1R and NR1 C1-σ1R associations . Agarose-BiP was loaded with σ1Rs, and after the unbound σ1Rs were removed, the agarose-BiP-σ1R complexes were incubated in the absence (control) and presence of increasing concentrations of (A) β-End 1-31 C-terminal physiological derivatives and (B) classical σ1R ligands. C) Agarose-σ2R loaded with σ1Rs was incubated in the absence (control) and with nonphysiological derivatives of β-End 1-31. D) Agarose-NR1 C1 loaded with σ1Rs were incubated in the absence (control) and with nonphysiological derivatives of β-End 1-31. A-D) The σ1Rs that remained attached to the agarose complexes were evaluated by Western blotting. The […]
(§4) (1 picture or pasted object on this page, not shown here)
Figure S10. Effect of σ1R agonist/antagonist ligands on σ1R-BiP associations. Agarose-attached BiP proteins were incubated for 30 min in the presence of recombinant σ1R (100 nM) proteins in 300 μL of 50 mM Tris-HCl (pH 7.4), 0.2% CHAPS, and 2.5 mM CaCl2. After the unbound σ1R proteins were […]
Background: A western blot detects proteins with antibodies after separation by electrophoresis.

A further test has as its target T2, σ1R-NR1 C1 (Mus musculus, UniProt O55242).
T2 construct: The coding region of the full-length murine σ1R (AF004927); GST (N, cleaved yes); made in house; host or cells: E. coli BL21 (KRX)
As to the kind of experiment: In vitro σ1R-NR1 C1 association of recombinant proteins (Western blot). Format: biochemical, murine. Conditions: increasing concentrations; 30 min RT; vs control without ligand. The method, then:
as §1, §2, §3
Figure S8. Effect of the physiological and nonphysiological sequences of β-End 1-31 and classical σ1R ligands on BiP-σ1R, σ2R-σ1R and NR1 C1-σ1R associations . […]
D) Agarose-NR1 C1 loaded with […]
σ1Rs were incubated in the absence (control) and with nonphysiological derivatives of β-End 1-31. A-D) The σ1Rs that remained attached to the agarose complexes were evaluated by Western blotting. The […]
as §4
Figure S9. Effect of σ1R agonist/antagonist ligands on σ1R-NR1 C1 associations. Θ-Agarose-NR1 C1 was loaded with recombinant σ1Rs. After unbound σ1R proteins were removed, the complexes were incubated with (A) 1 nM β-End 1-31, (B) αN-acetyl β-End 1-31, (C-D) β-End 28-31 in the absence (black columns) and presence of (A) 10 nM or (B-D) increasing concentrations of competing σ1R ligands as indicated. The σ1Rs that remained attached to the Θ-σ2Rs were evaluated by Western blotting. The […]
Prog is progesterone; PregSulfate is pregnenolone sulfate; Nac is […]

Entries after “also recorded” stand apart in the source; their conditions may differ.

We go through 11 compounds from publication PMC9820303, “^αN-Acetyl β-Endorphin Is an Endogenous Ligand of σ1Rs That Regulates Mu-Opioid Receptor Signaling by Exchanging G Proteins for σ2Rs in σ1R Oligomers” (International Journal of Molecular Sciences, 2022).

T1 sequence (O55242 whole entry): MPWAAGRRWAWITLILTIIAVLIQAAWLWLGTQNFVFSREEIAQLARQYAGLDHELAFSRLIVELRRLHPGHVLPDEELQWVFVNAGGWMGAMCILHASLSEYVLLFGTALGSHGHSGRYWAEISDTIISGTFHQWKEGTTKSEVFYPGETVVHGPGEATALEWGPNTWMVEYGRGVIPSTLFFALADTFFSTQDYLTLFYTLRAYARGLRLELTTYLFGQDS
T2 sequence (O55242 whole entry): as above

Turning to `Br.Br.CN(C)CCN(C)CCc1ccc(Cl)c(Cl)c1` [BD1047, N′-[2-(3,4-dichlorophenyl)ethyl]-N,N,N′-trimethylethane-1,2-diamine;dihydrobromide, reference compound], the “effect on σ1R-BiP association” value on σ1R-BiP is given as “did the opposite”. Also, the “effect on σ1R-NR1 C1 association” value at σ1R-NR1 C1 is recorded as “did the opposite”.

As for `COC(=O)[C@]1(c2ccc(C)cc2)C[C@@H]1CN1CCC(O)(c2ccccc2)CC1` [PPCC, (1R,2S/1S,2R)-2-[4-hydroxy-4-phenylpiperidin-1-yl)methyl]-1-(4-methylphenyl) cyclopropanecarboxylate, reference compound], the “effect on σ1R-BiP association” value at σ1R-BiP is “impaired σ1R associations with σ2R and BiP”. The “effect on σ1R-NR1 C1 association” value on σ1R-NR1 C1 is given as “increased σ1R-NR1 C1 complexes”.

`Cl.O=C(OCCN1CCOCC1)C1(c2ccccc2)CCCCC1` [PRE084, 2-(4-morpholinethyl)-1-phenylcyclohexanecarboxylate hydrochloride, reference compound]: the “effect on σ1R-BiP association” value on σ1R-BiP is “impaired σ1R associations with σ2R and BiP”. In addition, the “effect on σ1R-NR1 C1 association” value on σ1R-NR1 C1 is given as “increased σ1R-NR1 C1 complexes”.

For `Cc1cc(OCCN2CCOCC2)nn1-c1ccc2ccccc2c1` [S1RA], at σ1R-BiP, the “effect on σ1R-BiP association” value is “did the opposite”. Also, the “effect on σ1R-NR1 C1 association” value at σ1R-NR1 C1 is “did the opposite”.

With “KKGE [β-End 28–31, C-terminal tetrapeptide of β-End 1–31]”, at σ1R-BiP, the “activity at σ1R-BiP against agonists / β-End 1–31” value is “neither exhibited activity at σ1R-BiP nor reduced the effect of β-End 1–31” and the “effect on σ1R-BiP association” value was “weak direct effect on σ1R-BiP complexes”. Besides, the “effect on σ1R-NR1 C1 association” value on σ1R-NR1 C1 is on record as “reduced σ1R-NR1 C1 interactions”.

Turning to “YKKGE [β-End 27–31, C-terminal pentapeptide of β-End 1–31]”, the “effect on σ1R-BiP association” value on σ1R-BiP is reported as “increased”. On σ1R-NR1 C1, the “effect on σ1R-NR1 C1 association” value is reported as “increased σ1R-NR1 C1”.

For “^αN-acetyl β-End 1–31: β-End 1–31 acetylated at N terminal Y1, α position”, in the test with σ1R-BiP, the “activity at σ1R-BiP against agonists / β-End 1–31” value was “neither exhibited activity at σ1R-BiP nor reduced the effect of β-End 1–31” and the “effect on σ1R-BiP association” value is “weak at σ1R-BiP associations; also recorded: inactive”. Besides, the “effect on σ1R-NR1 C1 association” value with σ1R-NR1 C1 was “separated σ1Rs from NR1 C1 subunits at pM concentrations”.

On to “β-End 1–26: β-End 1–31 derivative without 5 C-terminal residues (YGGFMTSEKSQTPLVTLFKNAIIKNA; Beta-endorphin; UniProt P01189 237-262, looked up, fragment)”, for which the “effect on σ1R-BiP association” value with σ1R-BiP is “disrupted these complexes with potencies in the pM/nM range”. In addition, in the test with σ1R-NR1 C1, the “effect on σ1R-NR1 C1 association” value is “promoted σ1R-NR1 C1 associations at pM concentrations”.

As to “β-End 1–27: β-End 1–31 derivative without 4 C-terminal residues (YGGFMTSEKSQTPLVTLFKNAIIKNAY; Beta-endorphin; UniProt P01189 237-263, looked up, fragment)”, the “effect on σ1R-BiP association” value with σ1R-BiP is listed as “disrupted these complexes with potencies in the pM/nM range”. Further, the “effect on σ1R-NR1 C1 association” value with σ1R-NR1 C1 is “weak or no effects”.

In the case of “β-End 6–31: β-End 1–31 lacking the N-terminal met-enkephalin 1–5 sequence (TSEKSQTPLVTLFKNAIIKNAYKKGE; Beta-endorphin; UniProt P01189 242-267, looked up, fragment)”, the “effect on σ1R-NR1 C1 association” value with σ1R-NR1 C1 is on record as “began to separate the complex”.

In the case of “β-End 22–31: nonphysiological C-terminal sequence of β-End 1–31 (IIKNAYKKGE; Beta-endorphin; UniProt P01189 258-267, looked up, fragment)”, the “effect on σ1R-NR1 C1 association” value with σ1R-NR1 C1 is listed as “persisted”.
